Test results published in PMC2248166, “Quantitative peptide binding motifs for 19 human and mouse MHC class I molecules derived using positional scanning combinatorial peptide libraries” (Immunome Research, 2008).
Where a SMILES comes first, the peptide text is derived from it.

Columns and labels:
Experiment in all cases: biochemical
Assay type in all cases: binding
HLA B*0801 = HLA B*0801 (Homo sapiens, UniProt P01889, A93T/A95T/D138N/E176V/E187T/K202T/Q94N/R180D/S35A/V36M/Y33D/Y91F)
HLA B*1501 = HLA B*1501 (Homo sapiens, UniProt P01889, A329T/A93T/A95T/C349S/D201E/D98Y/E187L/E204Q/E69M/E70A/K202T/N87E/Q94N/R155S/R180W/S121R/S35A/S48A/V306I/V36M/Y140S/Y91S)
HLA A*3201 = HLA A*3201 (Homo sapiens, UniProt P04439, A270S/D101S/D185E/E176V/E277Q/F133L/G103R/G107R/G231S/H175R/I121M/I218V/I322F/K168Q/L105A/L300P/L318F/M331R/P208A/P217A/Q94H/R106L/R138Q/S129P/T104I/T323A/T345S/V100E/V321M/V358M)
HLA A*3001 = HLA A*3001 (Homo sapiens, UniProt P04439, D140H/D185E/E176W/F33S/G80R/H175R/K168Q/R138E/R41S)
Chain of HLA A*3001 (P04439 25-365 limits assumed, stated change not applied): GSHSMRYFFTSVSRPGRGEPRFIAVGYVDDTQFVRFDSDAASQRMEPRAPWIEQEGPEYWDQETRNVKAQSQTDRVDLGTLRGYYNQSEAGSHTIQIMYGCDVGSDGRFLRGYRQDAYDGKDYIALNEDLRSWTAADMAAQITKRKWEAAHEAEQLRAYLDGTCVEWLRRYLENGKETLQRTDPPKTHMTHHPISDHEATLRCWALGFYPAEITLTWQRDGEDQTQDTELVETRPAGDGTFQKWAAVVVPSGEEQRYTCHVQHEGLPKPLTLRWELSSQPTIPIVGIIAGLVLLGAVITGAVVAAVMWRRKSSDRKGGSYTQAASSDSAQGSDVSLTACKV

HLA B*1503 = HLA B*1503 (Homo sapiens, UniProt P01889, A329T/A93T/A95T/C349S/D201E/D98Y/E187L/E204Q/K202T/N87E/Q94N/R155S/R180L/S121R/S35A/V306I/V36M/Y140S/Y91S)

Row | SMILES | IC50 (HLA B*0801) [nM] | IC50 (HLA B*1501) [nM] | IC50 (HLA A*3201) [nM] | IC50 (HLA A*3001) [nM] | IC50 (HLA B*1503) [nM]
1 | CSCC[C@H](NC(=O)[C@@H](NC(=O)[C@@H](N)CCCCN)[C@@H](C)O)C(=O)N[C@@H](C)C(=O)N[C@H](C(=O)N[C@H](C(=O)N[C@@H](Cc1ccc(O)cc1)C(=O)N[C@@H](CCC(=O)O)C(=O)N[C@@H](CC(C)C)C(=O)O)[C@@H](C)O)C(C)C [3102.0293] (H-KTMAVTYEL-OH) | 19 | 5.5 | 0.58 | – | –
2 | CC(C)C[C@H](NC(=O)[C@H](CCCCN)NC(=O)[C@H](CCCCN)NC(=O)[C@H](Cc1ccc(O)cc1)NC(=O)[C@H](CC(C)C)NC(=O)[C@@H](NC(=O)[C@@H](N)Cc1ccc(O)cc1)[C@@H](C)O)C(=O)N[C@@H](CO)C(=O)N[C@@H](Cc1ccccc1)C(=O)O [3102.0333] (H-YTLYKKLSF-OH) | 16 | 14 | 194 | 23 | –
3 | CC[C@H](C)[C@H](NC(=O)[C@H](CO)NC(=O)[C@H](C)NC(=O)[C@@H](NC(=O)[C@@H](NC(=O)[C@H](CC(N)=O)NC(=O)[C@H](CCCNC(=N)N)NC(=O)[C@@H](NC(=O)[C@@H](N)CCCNC(=N)N)C(C)C)[C@@H](C)CC)[C@@H](C)CC)C(=O)O [3102.0367] (H-RVRNIIASI-OH) | 22 | – | 1 | 0.1 | –
4 | CC(C)C[C@H](NC(=O)[C@H](CC(C)C)NC(=O)[C@@H](N)CCCCN)C(=O)N[C@@H](CO)C(=O)N[C@@H](Cc1c[nH]cn1)C(=O)N[C@@H](Cc1ccccc1)C(=O)N[C@@H](Cc1ccc(O)cc1)C(=O)N1CCC[C@H]1C(=O)N[C@@H](C)C(=O)O [3102.0665] (H-KLLSHFYPA-OH) | 81 | 39 | 129 | – | 5.4
5 | CC[C@H](C)[C@H](NC(=O)[C@@H](N)CCCNC(=N)N)C(=O)N[C@@H](CCCNC(=N)N)C(=O)N[C@@H](CCCNC(=N)N)C(=O)N[C@@H](Cc1ccccc1)C(=O)N[C@@H](CCCNC(=N)N)C(=O)N[C@@H](CCCNC(=N)N)C(=O)N1CCC[C@H]1C(=O)N[C@@H](CCSC)C(=O)O [3102.0681] (H-RIRRFRRPM-OH) | 8.9 | 36 | – | 4.4 | 30
6 | CC[C@H](C)[C@H](NC(=O)[C@H](Cc1c[nH]cn1)NC(=O)[C@H](CS)NC(=O)[C@H](CC(C)C)NC(=O)[C@H](CC(C)C)NC(=O)[C@@H](N)CC(N)=O)C(=O)N[C@@H](Cc1ccc(O)cc1)C(=O)N[C@@H](CO)C(=O)N[C@@H](CC(C)C)C(=O)O [3102.0692] (H-NLLCHIYSL-OH) | 0.31 | – | 232 | – | –
7 | CSCC[C@H](NC(=O)[C@H](CC(C)C)NC(=O)[C@@H](N)CCSC)C(=O)N[C@@H](CC(N)=O)C(=O)N[C@@H](Cc1c[nH]cn1)C(=O)N[C@H](C(=O)N[C@@H](C)C(=O)N[C@@H](CC(N)=O)C(=O)N[C@@H](Cc1ccccc1)C(=O)O)C(C)C [3102.0720] (H-MLMNHVANF-OH) | 3.3 | – | 8.3 | – | –
8 | CC[C@H](C)[C@H](NC(=O)[C@@H](NC(=O)[C@H](Cc1c[nH]cn1)NC(=O)[C@H](CCCNC(=N)N)NC(=O)[C@H](CC(C)C)NC(=O)[C@@H](NC(=O)[C@H](Cc1ccccc1)NC(=O)[C@H](CCSC)NC(=O)[C@@H](N)CO)[C@@H](C)O)[C@@H](C)CC)C(=O)O [3102.0752] (H-SMFTLRHII-OH) | 1.8 | – | 83 | – | –
9 | CC[C@H](C)[C@H](NC(=O)[C@H](CCCNC(=N)N)NC(=O)[C@H](Cc1ccc(O)cc1)NC(=O)[C@H](CCSC)NC(=O)[C@H](CO)NC(=O)[C@@H](N)CCCNC(=N)N)C(=O)N1CCC[C@H]1C(=O)N1CCC[C@H]1C(=O)N[C@@H](Cc1ccccc1)C(=O)O [3102.0766] (H-RSMYRIPPF-OH) | 158 | – | 0.73 | – | –
10 | CSCC[C@H](NC(=O)[C@@H](N)CC(C)C)C(=O)N[C@@H](Cc1ccccc1)C(=O)N[C@@H](CCCCN)C(=O)N[C@@H](Cc1c[nH]cn1)C(=O)N[C@@H](CC(C)C)C(=O)N[C@@H](CC(C)C)C(=O)N[C@@H](Cc1c[nH]cn1)C(=O)N1CCC[C@H]1C(=O)O [3102.0908] (H-LMFKHLLHP-OH) | 1 | 103 | – | – | 26
11 | CC(C)C[C@H](NC(=O)[C@@H]1CCCN1C(=O)[C@H](CO)NC(=O)[C@H](Cc1ccccc1)NC(=O)[C@H](Cc1ccc(O)cc1)NC(=O)[C@H](CCCCN)NC(=O)[C@H](C)NC(=O)[C@@H](NC(=O)[C@H](C)N)C(C)C)C(=O)O [3102.0978] (H-AVAKYFSPL-OH) | 190 | 16 | 283 | – | –
12 | CC[C@H](C)[C@H](NC(=O)[C@@H](NC(=O)[C@H](CO)NC(=O)[C@H](CO)NC(=O)[C@H](CO)NC(=O)[C@H](CCCCN)NC(=O)[C@H](C)NC(=O)[C@@H](NC(=O)[C@@H](N)CC(C)C)[C@@H](C)CC)C(C)C)C(=O)O [3102.1021] (H-LIAKSSSVI-OH) | 13 | 23 | – | 11 | –
13 | CC(C)C[C@H](NC(=O)[C@@H](N)CC(C)C)C(=O)N[C@@H](Cc1ccccc1)C(=O)N[C@@H](Cc1ccc(O)cc1)C(=O)N[C@H](C(=O)N[C@@H](CCCNC(=N)N)C(=O)N[C@@H](Cc1c[nH]cn1)C(=O)N[C@@H](CCCNC(=N)N)C(=O)N[C@@H](Cc1ccccc1)C(=O)O)[C@@H](C)O [3102.1058] (H-LLFYTRHRF-OH) | 46 | 0.85 | 2.6 | – | 0.21
14 | CSCC[C@H](NC(=O)[C@@H](N)CO)C(=O)N[C@@H](CCCCN)C(=O)N[C@H](C(=O)N[C@H](C(=O)N[C@@H](Cc1ccccc1)C(=O)N[C@@H](CCC(N)=O)C(=O)N[C@H](C(=O)N[C@@H](Cc1ccccc1)C(=O)O)C(C)C)C(C)C)[C@@H](C)O [3102.1083] (H-SMKTVFQVF-OH) | 179 | 1.6 | – | – | 3.8
15 | CC[C@H](C)[C@H](NC(=O)[C@H](Cc1ccccc1)NC(=O)[C@H](CCCNC(=N)N)NC(=O)[C@H](CCC(=O)O)NC(=O)[C@@H](NC(=O)[C@H](CCSC)NC(=O)[C@@H](N)Cc1ccc(O)cc1)[C@@H](C)CC)C(=O)N[C@@H](CO)C(=O)N[C@@H](Cc1ccccc1)C(=O)O [3102.1085] (H-YMIERFISF-OH) | 0.35 | 0.11 | – | – | 0.046
16 | CC[C@H](C)[C@H](NC(=O)[C@@H](NC(=O)[C@H](CC(N)=O)NC(=O)[C@H](CCSC)NC(=O)[C@@H](N)CO)[C@@H](C)O)C(=O)N[C@@H](CCCCN)C(=O)N[C@@H](CCC(N)=O)C(=O)N[C@@H](CO)C(=O)N[C@@H](Cc1ccccc1)C(=O)O [3102.1144] (H-SMNTIKQSF-OH) | 450 | – | 293 | – | 17
17 | CSCC[C@H](NC(=O)[C@@H](NC(=O)[C@H](CO)NC(=O)CNC(=O)[C@H](CC(=O)O)NC(=O)[C@@H](NC(=O)[C@@H](NC(=O)[C@H](CCSC)NC(=O)[C@@H](N)Cc1ccc(O)cc1)C(C)C)C(C)C)C(C)C)C(=O)O [3102.1153] (H-YMVVDGSVM-OH) | 390 | 2.5 | – | – | 1
